Earlier results in paper PMC12304352, “Optimization of a GMP-compliant automated one-pot synthesis of Al[^18F]F-NOTA-Ubiquicidin29 − 41 for bacterial infection imaging by PET/CT” (EJNMMI Radiopharmacy and Chemistry, 2025).

System: methicillin-resistant S. aureus (MRSA)
Conditions: injected intravenously, ref Brouwer et al. [2006]
Text: Ubiquicidin (UBI), a cationic antimicrobial peptide fragment, has emerged as a promising agent for infection imaging due to its selective binding to anionic bacterial membranes (Ferro-Flores et al. [2016]). […] Another UBI-derived peptide (UBI29 − 41) radiolabeled with technetium-99m, was used as a probe for real-time, whole- ...

For “UBI31 − 38: synthetic ubiquicidin derivative composed of only eight amino acids (KVDENGKI; Small ribosomal subunit protein eS31; UniProt P62979 107-114, looked up, fragment)”, the “Efficacy against MRSA in a mouse infection model” value is listed as “somewhat reduced activity”.
